Source: patent US12404295B2, “(Hetero)aryl-methyl-thio-beta-D-galactopyranoside derivatives” (Idorsia Pharmaceuticals Ltd, priority 2019, dated 2025)
Like-named read-outs stand apart in the source and are kept apart here.

Target: human Gal-3 (hGal-3) (Homo sapiens (Human), UniProt P17931)
Test: competitive binding assay: biotinylated hGal-3 binding to microplate-adsorbed asialofetuin (ASF)
Method: If not explicitly mentioned otherwise, the inhibition data refer to the binding of biotinylated human Gal-3 (hGal-3).
Evaluation of Compound Inhibitory Activity (IC50)
The inhibitory activity of compounds is determined in competitive binding assays.
Briefly, compounds are serially diluted in DMSO (working dilutions).
Plates are incubated for 3 hours at 4° C., then washed with cold assay buffer (3×50 uL), incubated for 1 hour with 25 μL/well of a streptavidin-peroxidase solution (diluted in assay buffer to 80 ng/mL) at 4° C., followed by further washing steps with assay buffer (3×50 uL). Finally, 25 μL/well of ABTS substrate is added.
The calculated IC50 values may fluctuate depending on the daily assay performance. Fluctuations of this kind are known to those skilled in the art. IC50 values from several measurements are given as mean values.

[1] = Gal-3 inhibition, binding of biotinylated hGal-3 to ASF, mean values, read-out: IC50
[2] = Table 11, read-out: IC50 (Gal-3 inhibition)
[3] = Table 5, read-out: IC50 (Gal-3 inhibition)
[4] = Table 14, read-out: IC50 (Gal-3 inhibition)

Chain of human Gal-3 (hGal-3) (P17931 whole entry): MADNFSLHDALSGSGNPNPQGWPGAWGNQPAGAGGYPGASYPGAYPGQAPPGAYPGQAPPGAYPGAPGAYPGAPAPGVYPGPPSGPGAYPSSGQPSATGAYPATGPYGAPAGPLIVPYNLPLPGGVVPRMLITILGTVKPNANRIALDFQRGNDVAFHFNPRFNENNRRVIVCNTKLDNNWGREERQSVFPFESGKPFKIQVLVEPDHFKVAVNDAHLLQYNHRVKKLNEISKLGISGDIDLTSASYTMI

IC50 [1] | Compound | other results
50 nM | CC(C)Cc1c([C@@H](S[C@@H]2O[C@H](CO)[C@H](O)[C@H](n3cc(-c4cc(F)c(F)c(F)c4)nn3)[C@H]2O)C2(O)CCC(F)(F)CC2)noc1C1CC1 [2.44.131 R., (2S,3R,4S,5R,6R)-2-(((R)-(5-Cyclopropyl-4-isobutylisoxazol-3-yl)(4,4-difluoro-1-hydroxycyclohexyl)methyl)thio)-6-(hydroxymethyl)-4-(4-(3,4,5-trifluorophenyl)-1H-1,2,3-triazol-1-yl)tetrahydro-2H-pyran-3,5-diol] | 
800 nM | OC[C@H](S[C@@H]1O[C@H](CO)[C@H](O)[C@H](n2cc(-c3cc(F)c(F)c(F)c3)nn2)[C@H]1O)c1ccccc1 [Example 2.30.100R., (2S,3R,4S,5R,6R)-2-(((R)-2-Hydroxy-1-phenylethyl)thio)-6-(hydroxymethyl)-4-(4-(3,4,5-trifluorophenyl)-1H-1,2,3-triazol-1-yl)tetrahydro-2H-pyran-3,5-diol] | 
410 nM | CC(C)(O)C(S[C@@H]1O[C@H](CO)[C@H](O)[C@H](n2cc(-c3cc(F)c(F)c(F)c3)nn2)[C@H]1O)c1ccccc1Cl (stereo partly drawn) [Example 2.31.111., (2S,3R,4S,5R,6R)-2-((1-(2-Chlorophenyl)-2-hydroxy-2-methylpropyl)thio)-6-(hydroxymethyl)-4-(4-(3,4,5-trifluorophenyl)-1H-1,2,3-triazol-1-yl)tetrahydro-2H-pyran-3,5-diol] | 
 | CO[C@@H]1[C@@H](n2cc(-c3cc(F)c(F)c(F)c3)nn2)[C@@H](O)[C@@H](CO)O[C@H]1S[C@H](c1ccccc1C(F)(F)F)[C@]1(O)CCOC(C)(C)C1 [Example 2.43.112RS.I, (2R,3R,4S,5R,6S)-6-(((R)-((S)-4-Hydroxy-2,2-dimethyltetrahydro-2H-pyran-4-yl)(2-(trifluoromethyl)phenyl)methyl)thio)-2-(hydroxymethyl)-5-methoxy-4-(4-(3,4,5-trifluorophenyl)-1H-1,2,3-triazol-1-yl)tetrahydro-2H-pyran-3-ol] | IC50 (Table 9, 2-OMe-Gal inhibitors, read-out: IC50 (Gal-3 inhibition)): 140 nM
 | CO[C@@H]1[C@@H](n2cc(-c3cc(F)c(F)c(F)c3)nn2)[C@@H](O)[C@@H](CO)O[C@H]1S[C@H](c1ncccc1C)[C@@]1(O)CCOC(C)(C)C1 [Example 2.43.126RR.I., (2R,3R,4S,5R,6S)-6-(((R)-((R)-4-Hydroxy-2,2-dimethyltetrahydro-2H-pyran-4-yl)(3-methylpyridin-2-yl)methyl)thio)-2-(hydroxymethyl)-5-methoxy-4-(4-(3,4,5-trifluorophenyl)-1H-1,2,3-triazol-1-yl)tetrahydro-2H-pyran-3-ol] | IC50 [2]: 730 nM
 | CO[C@@H]1[C@@H](n2cc(-c3cc(F)c(F)c(F)c3)nn2)[C@@H](O)[C@@H](CO)O[C@H]1S[C@@H](c1ncccc1C)[C@@]1(O)CCOC(C)(C)C1 [Example 2.43.126SR.I., (2R,3R,4S,5R,6S)-6-(((S)-((R)-4-Hydroxy-2,2-dimethyltetrahydro-2H-pyran-4-yl)(3-methylpyridin-2-yl)methyl)thio)-2-(hydroxymethyl)-5-methoxy-4-(4-(3,4,5-trifluorophenyl)-1H-1,2,3-triazol-1-yl)tetrahydro-2H-pyran-3-ol] | IC50 [2]: 3500 nM
 | CO[C@@H]1[C@@H](n2cc(-c3cc(F)c(F)c(F)c3)nn2)[C@@H](O)[C@@H](CO)O[C@H]1S[C@@H](c1ncccc1C)[C@]1(O)CCOC(C)(C)C1 [Example 2.43.126SS.I., (2R,3R,4S,5R,6S)-6-(((S)-((S)-4-Hydroxy-2,2-dimethyltetrahydro-2H-pyran-4-yl)(3-methylpyridin-2-yl)methyl)thio)-2-(hydroxymethyl)-5-methoxy-4-(4-(3,4,5-trifluorophenyl)-1H-1,2,3-triazol-1-yl)tetrahydro-2H-pyran-3-ol] | IC50 [2]: 1900 nM
 | OC[C@H]1O[C@@H](S[C@H](c2ccccc2Cl)C2(O)CCC(F)(F)CC2)[C@H](O)[C@@H](n2cc(-c3cc(F)c(F)c(F)c3)nn2)[C@H]1O [Example 2.44.111R, (2S,3R,4S,5R,6R)-2-(((R)-(2-Chlorophenyl)(4,4-difluoro-1-hydroxycyclohexyl)methyl)thio)-6-(hydroxymethyl)-4-(4-(3,4,5-trifluorophenyl)-1H-1,2,3-triazol-1-yl)tetrahydro-2H-pyran-3,5-diol] | IC50 [3]: 90 nM
 | OC[C@H]1O[C@@H](S[C@@H](c2ccccc2Cl)C2(O)CCC(F)(F)CC2)[C@H](O)[C@@H](n2cc(-c3cc(F)c(F)c(F)c3)nn2)[C@H]1O [Example 2.44.111S, (2S,3R,4S,5R,6R)-2-(((S)-(2-Chlorophenyl)(4,4-difluoro-1-hydroxycyclohexyl)methyl)thio)-6-(hydroxymethyl)-4-(4-(3,4,5-trifluorophenyl)-1H-1,2,3-triazol-1-yl)tetrahydro-2H-pyran-3,5-diol] | IC50 [3]: 18400 nM
70 nM | CS(=O)(=O)N1CCC(O)(C(S[C@@H]2O[C@H](CO)[C@H](O)[C@H](n3cc(-c4cc(F)c(F)c(F)c4)nn3)[C@H]2O)c2ccccc2C(F)(F)F)CC1 (stereo partly drawn) [Example 2.47.112., (2S,3R,4S,5R,6R)-2-(((4-Hydroxy-1-(methylsulfonyl)piperidin-4-yl)(2-(trifluoromethyl)phenyl)methyl)thio)-6-(hydroxymethyl)-4-(4-(3,4,5-trifluorophenyl)-1H-1,2,3-triazol-1-yl)tetrahydro-2H-pyran-3,5-diol] | 
 | CO[C@@H]1[C@@H](n2cc(-c3cc(F)c(F)c(F)c3)nn2)[C@@H](O)[C@@H](CO)O[C@H]1SC(c1ncccc1C)C1(O)CCC2(CCOCC2)CC1 (stereo partly drawn) [Example 2.72.126.I, 9-((((2S,3R,4S,5R,6R)-5-Hydroxy-6-(hydroxymethyl)-3-methoxy-4-(4-(3,4,5-trifluorophenyl)-1H-1,2,3-triazol-1-yl)tetrahydro-2H-pyran-2-yl)thio)(3-methylpyridin-2-yl)methyl)-3-oxaspiro[5.5]undecan-9-ol] | IC50 [2]: 130 nM
220 nM | CS(=O)(=O)N1CC(O)(C(S[C@@H]2O[C@H](CO)[C@H](O)[C@H](n3cc(-c4cc(F)c(F)c(F)c4)nn3)[C@H]2O)c2ccccc2C(F)(F)F)C1 (stereo partly drawn) [Example 2..57.112., (2S,3R,4S,5R,6R)-2-(((3-Hydroxy-1-(methylsulfonyl)azetidin-3-yl)(2-(trifluoromethyl)phenyl)methyl)thio)-6-(Hydroxymethyl)-4-(4-(3,4,5-trifluorophenyl)-1H-1,2,3-triazol-1-yl)tetrahydro-2H-pyran-3,5-diol] | 
170 nM | CS(=O)(=O)N1CC(O)([C@H](S[C@@H]2O[C@H](CO)[C@H](O)[C@H](n3cc(-c4cc(F)c(F)c(F)c4)nn3)[C@H]2O)c2ccccc2C(F)(F)F)C1 [Example 2..57.112R., (2S,3R,4S,5R,6R)-2-(((R)-(3-Hydroxy-1-(methylsulfonyl)azetidin-3-yl)(2-(trifluoromethyl)phenyl)methyl)thio)-6-(hydroxymethyl)-4-(4-(3,4,5-trifluorophenyl)-1H-1,2,3-triazol-1-yl)tetrahydro-2H-pyran-3,5-diol] | 
5800 nM | CS(=O)(=O)N1CC(O)([C@@H](S[C@@H]2O[C@H](CO)[C@H](O)[C@H](n3cc(-c4cc(F)c(F)c(F)c4)nn3)[C@H]2O)c2ccccc2C(F)(F)F)C1 [Example 2..57.112S., (2S,3R,4S,5R,6R)-2-(((S)-(3-Hydroxy-1-(methylsulfonyl)azetidin-3-yl)(2-(trifluoromethyl)phenyl)methyl)thio)-6-(hydroxymethyl)-4-(4-(3,4,5-trifluorophenyl)-1H-1,2,3-triazol-1-yl)tetrahydro-2H-pyran-3,5-diol] | 
400 nM | COC(=O)N1CC(O)(C(S[C@@H]2O[C@H](CO)[C@H](O)[C@H](n3cc(-c4cc(F)c(F)c(F)c4)nn3)[C@H]2O)c2ccccc2C(F)(F)F)C1 (stereo partly drawn) [Example 2..58.112., Methyl 3-((((2S,3R,4S,5R,6R)-3,5-dihydroxy-6-(hydroxymethyl)-4-(4-(3,4,5-trifluorophenyl)-1H-1,2,3-triazol-1-yl)tetrahydro-2H-pyran-2-yl)thio)(2-(trifluoromethyl)phenyl)methyl)-3-hydroxyazetidine-1-carboxylate] | 
290 nM | O=C(NC1CC1)N1CC(O)(C(S[C@@H]2O[C@H](CO)[C@H](O)[C@H](n3cc(-c4cc(F)c(F)c(F)c4)nn3)[C@H]2O)c2ccccc2C(F)(F)F)C1 (stereo partly drawn) [Example 2..59.11.2, N-Cyclopropyl-3-((((2S,3R,4S,5R,6R)-3,5-dihydroxy-6-(hydroxymethyl)-4-(4-(3,4,5-trifluorophenyl)-1H-1,2,3-triazol-1-yl)tetrahydro-2H-pyran-2-yl)thio)(2-(trifluoromethyl)phenyl)methyl)-3-hydroxyazetidine-1-carboxamide] | 
 | CO[C@@H]1[C@@H](n2cc(-c3ccc(F)c(F)c3F)nn2)[C@@H](O)[C@@H](CO)O[C@H]1SC(c1ncccc1C)C1(O)CCC(F)(F)CC1 (stereo partly drawn) [Example 21.44.126.I., (2R,3R,4S,5R,6S)-6-(((4,4-Difluoro-1-hydroxycyclohexyl)(3-methylpyridin-2-yl)methyl)thio)-2-(hydroxymethyl)-5-methoxy-4-(4-(2,3,4-trifluorophenyl)-1H-1,2,3-triazol-1-yl)tetrahydro-2H-pyran-3-ol] | IC50 [4]: 60 nM
 | CO[C@@H]1[C@@H](n2cc(-c3cnc(F)c(C)c3)nn2)[C@@H](O)[C@@H](CO)O[C@H]1SC(c1ncccc1C)C1(O)CCC(F)(F)CC1 (stereo partly drawn) [Example 24.44.126.I., (2R,3R,4S,5R,6S)-6-(((4,4-Difluoro-1-hydroxycyclohexyl)(3-methylpyridin-2-yl)methyl)thio)-4-(4-(6-fluoro-5-methylpyridin-3-yl)-1H-1,2,3-triazol-1-yl)-2-(hydroxymethyl)-5-methoxytetrahydro-2H-pyran-3-ol] | IC50 [4]: 330 nM
